What was measured:
[1] = system: A2780 human ovarian carcinoma; assay: A2780 human ovarian carcinoma xenograft tumor growth delay in athymic nude mice; settings: monotherapy vs control; paclitaxel i.v. qod×5; ozanimod or Compound 103 p.o. qd to end; 60-day study
[2] = biological target: T1, human sphingosine-1-phosphate receptor 1 (S1P1) (Homo sapiens (Human), UniProt P21453); assay: β-Arrestin2 recruitment assay (PathHunter), S1P1 CHO-K1 cells; type: cell-based; settings: for hS1P1 B-arrestin2 pEC50: β-arrestin2 recruitment, S1P1 CHO-K1 cells; for Emax: CHO-K1, efficacy (SPAN) normalized to fingolimod, read-out: hS1P1 B-arrestin2 SPAN
Summary of the method: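 Enzyme-fragment complementation read-out: agonist-driven β-arrestin2 binding to ProLink-tagged human S1P1 in stable CHO-K1 cells restores β-galactosidase, measured 1 h at room temperature after a 60 min 37° C. compound incubation. Potency as pEC50, efficacy relative to fingolimod (SPAN).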
Target sequence in this assay (P21453 whole entry, looked up, the tested form may be a part): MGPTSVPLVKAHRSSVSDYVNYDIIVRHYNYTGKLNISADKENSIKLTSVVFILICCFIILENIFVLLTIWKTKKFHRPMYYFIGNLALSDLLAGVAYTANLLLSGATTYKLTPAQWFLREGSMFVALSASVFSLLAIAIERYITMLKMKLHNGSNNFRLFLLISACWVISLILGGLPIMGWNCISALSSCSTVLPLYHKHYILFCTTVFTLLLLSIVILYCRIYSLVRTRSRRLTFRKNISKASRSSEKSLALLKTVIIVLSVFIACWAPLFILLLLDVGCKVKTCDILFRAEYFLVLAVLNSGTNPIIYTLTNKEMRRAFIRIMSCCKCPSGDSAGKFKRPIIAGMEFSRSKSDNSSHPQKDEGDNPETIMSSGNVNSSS
Target sequence in this assay (P32121 whole entry partner, looked up, the tested form may be a part): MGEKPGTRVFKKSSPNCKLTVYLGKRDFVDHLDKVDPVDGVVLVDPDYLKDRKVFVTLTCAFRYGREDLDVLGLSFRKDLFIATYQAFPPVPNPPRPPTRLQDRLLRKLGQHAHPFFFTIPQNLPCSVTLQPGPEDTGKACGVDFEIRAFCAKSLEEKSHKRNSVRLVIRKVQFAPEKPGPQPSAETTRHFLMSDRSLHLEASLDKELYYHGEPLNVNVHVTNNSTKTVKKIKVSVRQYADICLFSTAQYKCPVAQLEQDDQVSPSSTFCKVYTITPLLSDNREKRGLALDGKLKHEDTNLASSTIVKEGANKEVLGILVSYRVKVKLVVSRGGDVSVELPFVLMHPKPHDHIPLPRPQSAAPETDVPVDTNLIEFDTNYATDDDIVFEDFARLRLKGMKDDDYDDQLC

[3] = system: paclitaxel induced peripheral neuropathy; assay: Reversal of allodynia induced by paclitaxel in mice (s.c. or p.o., von Frey frequency method); type: in vivo, c57bl/6 mice; settings: Mus musculus; for inhibition in vivo at 3 mg/kg: po, 1 h, 3 mg/kg p.o., tested 60 min after dosing, read-out: Screen @ 3 mg/kg po (% MPE); for inhibition in vivo at 1 mg/kg: sc, 0.5 h, 1 mg/kg s.c., tested 30 min after dosing, read-out: Screen @ 1 mg/kg sc (% MPE)
Summary of the method: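 Neuropathy was induced in mice by paclitaxel (6 mg/kg i.p., days 1, 3, 5, 7) or oxaliplatin (4 mg/kg i.p., days 1-5), with re-testing about 14 days later. Compounds were given s.c. (tested at 30 min) or p.o. (tested at 60 min; paclitaxel only). A 0.4 g von Frey filament was applied ten times per paw, and % non-response was converted to % MPE.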

[4] = biological target: T1, human sphingosine-1-phosphate receptor 1 (S1P1); assay: Inhibition of cAMP production (HTRF cAMP HiRange), S1P1 CHO-K1 cells; type: cell-based; settings: for hS1P1 cAMP pEC50: inhibition of cAMP production, S1P1 CHO-K1 cells; for Emax: CHO-K1, efficacy (SPAN) normalized to fingolimod, read-out: hS1P1 cAMP SPAN
Summary of the method: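 CHO-K1 cells stably co-expressing human S1P1 (C-terminal Prolink tag) and EA-β-arrestin2 were grown in AssayComplete Media 6 at 37° C. and 5% CO2, plated, and incubated overnight. Agonist-driven inhibition of intracellular cAMP was read by TR-FRET with the HTRF cAMP HiRange kit on a PheraStar reader. Potency is pEC50, and efficacy (SPAN) is normalized to fingolimod.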
Target sequence in this assay (P21453 whole entry, looked up, the tested form may be a part): as the sequence (P21453 whole entry, looked up, the tested form may be a part) above

hERG channel = hERG channel (Homo sapiens (Human), UniProt Q12809); assay: Automated Qpatch patch-clamp hERG assay
Sequence of hERG channel (Q12809 whole entry): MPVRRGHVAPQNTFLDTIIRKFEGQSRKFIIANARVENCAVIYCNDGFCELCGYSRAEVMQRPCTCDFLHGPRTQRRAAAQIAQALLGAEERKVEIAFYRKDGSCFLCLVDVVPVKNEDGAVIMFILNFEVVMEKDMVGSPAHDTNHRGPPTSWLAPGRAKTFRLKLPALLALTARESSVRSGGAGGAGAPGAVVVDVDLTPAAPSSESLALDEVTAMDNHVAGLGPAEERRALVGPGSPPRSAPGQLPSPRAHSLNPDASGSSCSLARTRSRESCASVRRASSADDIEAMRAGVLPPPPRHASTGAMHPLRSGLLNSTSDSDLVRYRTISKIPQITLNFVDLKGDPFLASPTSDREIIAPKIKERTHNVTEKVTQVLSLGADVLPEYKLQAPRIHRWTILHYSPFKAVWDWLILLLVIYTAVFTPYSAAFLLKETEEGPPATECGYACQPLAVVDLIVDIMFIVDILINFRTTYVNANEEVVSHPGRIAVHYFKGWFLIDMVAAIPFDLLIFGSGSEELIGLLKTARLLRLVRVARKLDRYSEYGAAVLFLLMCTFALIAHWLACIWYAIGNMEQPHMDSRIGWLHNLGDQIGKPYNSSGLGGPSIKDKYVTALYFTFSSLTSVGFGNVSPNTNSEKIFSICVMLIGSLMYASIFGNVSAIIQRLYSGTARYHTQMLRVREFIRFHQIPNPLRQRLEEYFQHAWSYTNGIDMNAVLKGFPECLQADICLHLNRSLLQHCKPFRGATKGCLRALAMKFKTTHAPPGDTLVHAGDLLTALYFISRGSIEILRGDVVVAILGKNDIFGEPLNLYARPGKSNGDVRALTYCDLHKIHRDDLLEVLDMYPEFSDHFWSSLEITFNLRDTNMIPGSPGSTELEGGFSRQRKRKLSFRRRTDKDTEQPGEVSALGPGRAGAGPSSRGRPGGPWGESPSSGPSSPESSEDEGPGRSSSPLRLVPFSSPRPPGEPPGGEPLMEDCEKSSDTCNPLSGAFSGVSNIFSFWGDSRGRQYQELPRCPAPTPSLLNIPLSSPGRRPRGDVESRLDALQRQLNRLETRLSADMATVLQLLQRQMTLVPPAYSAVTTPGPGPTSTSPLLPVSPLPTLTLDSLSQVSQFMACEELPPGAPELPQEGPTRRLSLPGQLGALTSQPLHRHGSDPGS

[5] = system: peripheral blood lymphocytes; assay: Peripheral blood lymphocytes (lymphopenia) in c57bl/6 mice, acute and chronic studies; type: in vivo; settings: peripheral blood lymphocytes vs vehicle; 6 mg/kg sc, 7 days
Experimental: Compounds were tested for changes in peripheral blood lymphocytes in c57bl/6 mice. In acute studies, animals (n=5/group) were dosed subcutaneously with test compound at a dose of 3 mg/kg. Animals were sacrificed at specific time points and 500 μl of whole blood was collected in EDTA (K2) Eppendorf tubes. Blood was stored on ice and shipped immediately overnight delivery to Charles River Laboratories for analysis. CRL ran samples through their WBC/differential panel on an Advia 120 instrument. We received peripheral lymphocyte counts (10^3 cells/μl) for each blood sample. Treatment group means were compared to a vehicle treatment group for statistical significance. In chronic studies, animals (n=6-8/group) were dosed subcutaneously with test compound either in a dose response paradigm (highest dose of 3 mg/kg) or in a screening paradigm at 6 mg/kg for seven days. On the seventh day, animals were sacrificed 45 minutes after the final dose. Whole blood was collected and analyzed as described for acute studies. […]

[6] = system: oxaliplatin induced peripheral neuropathy; assay: Reversal of allodynia induced by oxaliplatin in mice (von Frey frequency method); type: in vivo, c57bl/6 mice; settings: tested 30 min after dosing
Experimental: Compounds were tested for efficacy in mouse models of chemotherapy induced peripheral neuropathy. […] For these studies […]/6 mice are habituated to the test environment and baseline measurements of pain sensitivity are assessed. To determine mechanical responses, the threshold for responses to punctate mechanical stimuli (mechanical hyperalgesia) was tested according to the frequency method. In brief, the plantar surface of the animal hindpaw was stimulated with a single von Frey monofilament (0.4 g) for approximately 1-2 seconds. If there was a withdrawal response, it was recorded as a positive response. A response was defined as a lifting or shaking of the paw upon stimulation. This was repeated ten times for each mouse. The final measurement for each mouse is the % non-response to stimulation for the ten trials. The % non-response to stimulation is converted to a % MPE. For paclitaxel induced peripheral neuropathy, a series of injections of PAC (6 mg/kg, i.p.) on days 1, 3, 5 and 7 is used to induce peripheral neuropathy. After approximately 14 days from the initiation of PAC injections, animals are re-assessed for mechanical sensitivity. […] On test day animals are dosed with compounds either subcutaneously or orally and tested for mechanical response by the frequency method either 30 min (s.c.) or 60 min (p.o.) after drug administration. Data is presented as a % MPE. For oxaliplatin induced peripheral neuropathy, a series of injections of OXA (4 mg/kg, i.p.) on days 1-5 is used to induce peripheral neuropathy. After approximately 14 days from the initiation of PAC injections, animals are re-assessed for mechanical sensitivity. […] On test day animals are dosed with compounds subcutaneously and tested for mechanical response by the frequency method 30 min after drug administration. Data is presented as a % MPE. One or more of the compounds show reversal of chemotherapeutic induced peripheral neuropathy.

[7] = system: Freund's Complete Adjuvant induced inflammation / mechanical allodynia; assay: Tactile allodynia produced by intraplantar Freund's Complete Adjuvant in rats (Randall-Selitto); type: in vivo, rat; settings: CFA model, 24 hours after CFA
Experimental: Animals were acclimated to the vivarium for at least 48 hr prior to behavioral testing. Inflammation was induced with the administration of an intraplantar (subcutaneous injection into the plantar surface of the hind paw, i.pl.) injection of 0.10 ml Freund's Complete Adjuvant (FCA). The experiments were conducted 24 hours after CFA administration. Rats are tested for mechanical allodynia in a Randall-Selitto apparatus. The inflamed paw is put on a pedestal and a pointed force of increasing intensity (0 to 250 grams) is applied to the paw. When the animal struggles to withdraw from the force the test is stopped and the force to induce that struggle is recorded. Data is presented as mean grams of force to withdrawal or a percentage of the maximum possible effect.

Row | SMILES | hS1P1 B-arrestin2 pEC50 [2] | hS1P1 cAMP pEC50 [4] | Lymphopenia: Effect and Doses, mg/kg, sc [5] | Emax [2] [%] | Emax [4] [%] | percent tumor growth delay (% TGD), monotherapy [1] [%] | inhibition in vivo at 3 mg/kg [3] [%] | IC50 (hERG channel) [µM] | Screen @ 3 mg/kg sc (% MPE) [6] [% MPE] | inhibition in vivo at 1 mg/kg [3] [%] | Active Doses, mg/kg sc (>50% MPE) [7] [mg/kg]
1 | CC(=O)O[C@H]1C(=O)[C@@]2(C)[C@H]([C@H](OC(=O)c3ccccc3)[C@]3(O)C[C@H](OC(=O)[C@H](O)[C@@H](NC(=O)c4ccccc4)c4ccccc4)C(C)=C1C3(C)C)[C@]1(OC(C)=O)CO[C@@H]1C[C@@H]2O [Paclitaxel, reference compound] |  |  |  |  |  | 128 |  |  |  |  | 
2 | Cc1ccsc1-c1noc(-c2ccc3c(c2)nnn3C(C)C)n1 [Compound 169, 5-[3-(3-methylthiophen-2-yl)-1,2,4-oxadiazol-5-yl]-1-(propan-2-yl)-1H-1,2,3-benzotriazole] | >5 | >6.5 | no change: 6 mg/kg, 7 days |  |  |  |  |  | >50 | > 50 | 
3 | Cc1cnccc1-c1nc(-c2ccc3c(ccn3C(C)C)c2)no1 [Compound 142, 3-(1-isopropyl-1H-indol-5-yl)-5-(3-methylpyridin-4-yl)-1,2,4-oxadiazole] | >5 | >6.5 | no change: 6 mg/kg, 7 days | > 75 | > 75 |  | > 50 |  | >50 | > 50 | ≥0.1
4 | CC(F)(F)CNc1ccc(-c2nnc(-c3ccc4[nH]cnc4c3)o2)cc1C#N [Compound 520, 5-[5-(1H-1,3-benzodiazol-5-yl)-1,3,4-oxadiazol-2-yl]-2-[(2,2-difluoropropyl)amino]benzonitrile] | >5 | >6.5 | no change: 6 mg/kg, 7 days | > 75 | > 75 |  | > 50 | > 10 |  |  | 
5 | CC(C)Oc1ccc(-c2nc(-c3cccc4c3CC[C@@H]4NCCO)no2)cc1C#N [ozanimod, reference compound] |  |  |  |  |  | 31 |  |  |  |  | 

Second part, led by results:

Row | hS1P1 B-arrestin2 pEC50 [2] | hS1P1 cAMP pEC50 [4] | Lymphopenia: Effect and Doses, mg/kg, sc [5] | Emax [2] [%] | Emax [4] [%] | SMILES | percent tumor growth delay (% TGD), monotherapy [1] [%] | inhibition in vivo at 3 mg/kg [3] [%] | IC50 (hERG channel) [µM] | Screen @ 3 mg/kg sc (% MPE) [6] [% MPE] | inhibition in vivo at 1 mg/kg [3] [%] | Active Doses, mg/kg sc (>50% MPE) [7] [mg/kg]
6 | >5 | >6.5 |  |  |  | N#Cc1cc(-c2nc(-c3ccc4c(c3)NC(=O)C4)no2)ccc1NCC1CC1 [Compound 497, 2-((cyclopropylmethyl)amino)-5-(3-(2-oxoindolin-6-yl)-1,2,4-oxadiazol-5-yl)benzonitrile] |  | < 50 | > 10 |  |  | 
7 | >5 | >6.5 | no change: 6 mg/kg, 7 days |  |  | COc1ccc(-c2noc(-c3ccc4c(c3)nnn4C(C)C)n2)c(C)c1 [Compound 55, 5-(1-isopropyl-1H-benzo[d][1,2,3]triazol-5-yl)-3-(4-methoxy-2-methylphenyl)-1,2,4-oxadiazole] |  |  |  | >50 | < 50 | 
8 |  |  | no change: 6 mg/kg, 7 days |  |  | CC(C)Nc1ccc(-c2nc(-c3ccc4nonc4c3)no2)cc1C#N [Compound 730, 5-[3-(2,1,3-benzoxadiazol-5-yl)-1,2,4-oxadiazol-5-yl]-2-[(propan-2-yl)amino]benzonitrile] |  | > 50 | > 10 |  |  | 

Reference: patent US11912693B2, “Compounds for modulating S1P1 activity and methods of using the same” (TREVENA, INC., priority 2017, dated 2024)
